According to patent US20230397605A1, “METHODS FOR IMPROVING PLANT GROWTH AND CROP YIELD BY USING COMPOUNDS OF TRISULPHIDE OR TETRASULPHIDE” (UNIVERSITY OF IOWA RESEARCH FOUNDATION, priority 2020, published 2023):

Key:
Lettuce = experiment: Growth of lettuce in nutrient-film technique hydroponic system (fresh weight of leafy head at harvest); assay type: in vivo, lettuce (buttercrunch); conditions: treatment day 42, harvest day 58, N=28 (control mean 36.13 g)
Experimental: Lettuce was grown in a nutrient-film technique hydroponic system. The seedlings were grown under LED light film with a 14 hour on time, and a 10 hour off time. The lettuce seeds were purchased from Johnny Selected Seeds. The seed variety was buttercrunch, ID 435 g. The nutrients used were Chem-Gro lettuce formula NPK with micronutrients. Calcium nitrate and magnesium sulfate were also added to the nutrients. The nutrients and the NAC-trisulfide were added to the nutrient bucket, Which was a 4 gallon bucket that recirculated the nutrient solution through the entire NFT system to bathe the roots of the lettuce plants with nutrients and water. An air stone with air pump was used in each nutrient bucket to provide aeration to the nutrient solution. […] The nutrient reservoirs were kept pH balanced and nutrient levels were kept steady. The nutrient loading measured in EC (electrical conductivity) would gradually increase as the water was consumed but would return to normal levels once water was added to return the buckets to the max volume of 4 gallons. The conductivity (EC) and pH were measured every 1 to 2 days. Nutrient was added as EC at 4 gallons would approach a value of 0.5 EC. The starting nutrient loading was 1.7 EC, The pH of the nutrient solution was balanced using phosphoric acid “pH down” solution. The pH of the nutrient solution ranged between 6.4-7.4.
The lettuce seeds were started in a separate flood tray. The seeds were sowed into an inert solid support (Oasis Horticubes) and the support absorbed water and nutrients like a sponge. The seedlings were then grown in the seeding hay for 33 days prior to transplant into the channels. At day 42. N-acteyl cysteine trisulfide (NAC trisulfide) was added to the nutrient of the lettuce plants. […]
The lettuce plants were harvested by cutting at the root boundary and discarding the roots along with the solid support. The leafy head of lettuce was then weighed to quantify the fresh weight of the lettuce reported in the graphs (see FIG. 1).

peas = conditions: cited from earlier work
radish = conditions: cited from earlier work
lettuce plants = conditions: cited from earlier work

Row | Compound | Fresh Weight (g) Mean (Lettuce; group 2, 0.2449 g/4 gal nutrient reservoir) [g] | Fresh Weight (g) Mean (Lettuce; group 3, 0.7475 g/4 gal nutrient reservoir) [g] | Fresh Weight (g) Mean (Lettuce; group 4, 1.6112 g/4 gal nutrient reservoir) [g] | growth of plants (peas) | harvest yield of radishes (radish; milligram loadings applied) | growth of plants (radish; radish) | growth of plants (lettuce plants)
1 | CC(=O)N[C@@H](CSSSC[C@H](NC(C)=O)C(=O)O)C(=O)O [NAC trisulfide, N-acetyl cysteine trisulfide] | 42.50 | 51.44 | 56.07 |  |  |  | 
2 | C1COCCN1.COc1ccc(P(=S)(S)N2CCOCC2)cc1 (stereo not shown) [GYY-4137] |  |  |  | increased the growth | doubled | increased the growth | increased the growth
